{
  "source": "paper PMC9489722",
  "about": "“Identification and development of a subtype-selective allosteric AKT inhibitor suitable for clinical development” (Scientific Reports, 2022)",
  "key": {"MCF-7 cells": {"tested_on": "MCF-7 cells", "assay": "In vitro proliferation assay (CellTiter-Glo), MCF-7", "assay_type": "cell-based", "conditions": "Homo sapiens, MCF7; MCF-7 cells (PI3KCA mutation), 72 h; read-out: anti-proliferative IC50, MCF-7", "description": "MCF-7, T47D, NCI-H460, HCT116, LNCaP, A431, PC3, PANC-1, A549, HT29M, SKOV-3, Du145, HMEC-1, Hs888Lu, Hela, MDA-MB-231 and SW480 cells were obtained from American Type Culture Collection (ATCC). A2780, PNT2, U251MG, HFFF2 and Fr2 cells were obtained from Public Health England European Collection of Authenticated Cell Cultures (Phe ECACC). InMyoFib and NHLF cells were acquired from Lonza. Cells were then incubated with increasing concentration of inhibitor (1 nM to 100 µM) for 72 h at 37 °C. Cell viability was determined using the CellTiter-Glo Luminescent Cell Viability Assay (Promega). IC50 values were derived as previously stated."}, "∆AKT2": {"tested_on": "∆AKT2", "assay": "PH domain null AKT2 biochemical kinase assay (FP iMAP)", "description": "Biochemical analysis was performed using kinases obtained from Millipore (AKT1, ∆AKT1, ∆AKT2, ∆AKT3) and Signal Chem (AKT2 and AKT3). The specific activity of AKT 1,2 and 3 was determined to be 114 nmol/min/mg, 44 nmol/min/mg and 200 nmol/min/mg respectively as per activity assay protocol. ALM301 was profiled using the Fluorescent Polarisation (FP) iMAP Screening Express kit (Molecular Devices) using the FAM-Crosstide substrate [5FAM-[…]-OH] (Molecular Devices) against the three isoforms of AKT and their PH domain null mutants. Compounds were dissolved in DMSO prior to screening at 14 point titration series in the range (50 µM–50 pM). Fluorescence polarisation was measured using a Biotek Synergy 4 Hybrid microplate reader. Percentage inhibition of kinase activity was calculated and IC50 values derived using non-linear regression on GraphPad Prism. Competition of ALM301 with ATP was determined using AKT1 under increasing ATP concentrations up to 1000 µM."}, "A549 xenografts": {"tested_on": "A549 xenografts", "assay": "Anti-tumour efficacy study in A549 lung cancer xenograft model", "assay_type": "in vivo, mouse", "description": "For efficacy in A549 xenografts, 90 male BALB/c nude mice aged 6–8 weeks and weighing approximately 20–26 g were inoculated subcutaneously in the right flank with 1 × 10^7 A549 tumour cells (ATCC) in 0.1 mL of PBS with Matrigel (1:1) to aid tumour development. When the mean tumour size reached approximately 150 mm^3, 10 mice were randomised to each experimental group, using a randomised block approach. Groups sizes were devised based on past experience of the provider. Treatment started on Day 11 after tumour inoculation with mice receiving ALM301 (either 10, 30 or 100 mg/kg) or vehicle control. Tumour size was measured twice weekly in two dimensions using a caliper, and the volume expressed in mm^3 using the formula: V = 0.5 (a × b^2), where a and b are the long and short diameters of the tumour, respectively."}, "CYP 2C19": {"target": "CYP 2C19 (Homo sapiens, UniProt P33261)", "sequence (P33261 whole entry)": "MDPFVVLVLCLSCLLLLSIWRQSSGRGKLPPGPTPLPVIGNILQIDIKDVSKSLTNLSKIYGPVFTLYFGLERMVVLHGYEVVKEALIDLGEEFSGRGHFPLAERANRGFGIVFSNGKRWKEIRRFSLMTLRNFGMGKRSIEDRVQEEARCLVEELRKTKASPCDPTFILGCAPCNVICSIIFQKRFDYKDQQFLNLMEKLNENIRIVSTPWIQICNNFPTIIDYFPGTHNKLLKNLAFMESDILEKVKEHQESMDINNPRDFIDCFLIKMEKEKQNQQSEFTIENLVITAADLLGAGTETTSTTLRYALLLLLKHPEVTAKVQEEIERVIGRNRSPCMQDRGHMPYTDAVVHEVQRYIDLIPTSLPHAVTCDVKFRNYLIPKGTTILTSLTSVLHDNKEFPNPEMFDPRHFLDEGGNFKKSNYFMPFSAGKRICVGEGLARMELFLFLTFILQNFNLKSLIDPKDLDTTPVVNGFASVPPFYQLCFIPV", "assay": "CYP2C19 inhibition", "assay_type": "in vitro ADME"}, "AKT2": {"target": "T1, AKT2 (Homo sapiens, UniProt P31751)", "T1 construct": "purchased Signal Chem", "T1 sequence (P31751 whole entry, the tested form may be a part, canonical isoform)": "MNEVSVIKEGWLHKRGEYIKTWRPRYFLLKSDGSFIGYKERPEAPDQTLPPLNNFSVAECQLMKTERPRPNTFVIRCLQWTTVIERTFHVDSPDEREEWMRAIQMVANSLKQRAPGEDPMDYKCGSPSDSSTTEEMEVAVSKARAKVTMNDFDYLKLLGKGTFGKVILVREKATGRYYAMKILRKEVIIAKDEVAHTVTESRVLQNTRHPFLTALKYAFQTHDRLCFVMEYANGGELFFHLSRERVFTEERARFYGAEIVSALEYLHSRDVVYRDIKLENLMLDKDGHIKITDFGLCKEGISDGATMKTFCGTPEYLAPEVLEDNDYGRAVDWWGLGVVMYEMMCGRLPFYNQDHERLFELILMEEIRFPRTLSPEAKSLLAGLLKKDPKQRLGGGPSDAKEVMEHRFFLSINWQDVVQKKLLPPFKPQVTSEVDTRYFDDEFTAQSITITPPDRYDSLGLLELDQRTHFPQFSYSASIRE", "assay": "AKT2 biochemical kinase assay (FP iMAP)", "description": "Biochemical analysis was performed using kinases obtained from Millipore (AKT1, ∆AKT1, ∆AKT2, ∆AKT3) and Signal Chem (AKT2 and AKT3). […] (Molecular Devices) against the three isoforms of AKT and their PH domain null mutants. Compounds were dissolved in DMSO prior to screening at 14 point titration series in the range (50 µM–50 pM). Fluorescence polarisation was measured using a Biotek Synergy 4 Hybrid microplate reader. Percentage inhibition of kinase activity was calculated and IC50 values derived using non-linear regression on GraphPad Prism. Competition of ALM301 with ATP was determined using AKT1 under increasing ATP concentrations up to 1000 µM."}, "PDK1": {"target": "PDK1 (Homo sapiens, UniProt O15530)", "sequence (O15530 whole entry)": "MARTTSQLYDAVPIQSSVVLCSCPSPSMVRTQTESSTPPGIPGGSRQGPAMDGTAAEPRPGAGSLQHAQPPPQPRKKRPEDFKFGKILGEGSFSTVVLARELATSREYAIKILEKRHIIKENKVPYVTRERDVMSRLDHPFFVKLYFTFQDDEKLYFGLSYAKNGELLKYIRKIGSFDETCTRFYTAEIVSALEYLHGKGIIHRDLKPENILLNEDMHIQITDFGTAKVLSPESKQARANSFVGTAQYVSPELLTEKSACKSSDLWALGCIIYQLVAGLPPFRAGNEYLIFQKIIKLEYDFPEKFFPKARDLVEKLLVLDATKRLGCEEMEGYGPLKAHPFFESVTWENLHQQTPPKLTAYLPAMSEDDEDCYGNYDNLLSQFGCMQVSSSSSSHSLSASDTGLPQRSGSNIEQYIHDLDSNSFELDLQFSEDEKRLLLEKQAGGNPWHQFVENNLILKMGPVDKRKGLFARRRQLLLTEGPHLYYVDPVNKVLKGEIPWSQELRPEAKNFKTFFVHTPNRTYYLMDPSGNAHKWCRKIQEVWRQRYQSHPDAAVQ", "assay": "SelectScreen kinase selectivity profiling, PDK1", "assay_type": "biochemical", "description": "(§1) Off-target kinase activity was performed using the SelectScreen kinase profiling service against either mini 50 kinase or full 450 kinase panels using the Z’lyte and Adapta kinase activity platforms (performed by Thermofisher)."}, "LogD7.4 assay": {"assay": "LogD7.4 assay", "assay_type": "physicochemical", "conditions": "octanol/PBS buffer; octanol/PBS pH 7.4", "description": "Compounds (100 µM) were shaken at 300 rpm at room temperature for 4 h in a biphasic system of octanol and PBS buffer pH 7.4 in a 96-well plate in triplicate. The relative drug concentration in each phase was then determined by the peak area measurement from LC-UV analysis on an Agilent 1260 chromatography instrument (UV detection at 254 nm and 220 nm). LogD is calculated as follows: LogD = Log[peak area of compound in octanol x injection volume of buffer phase/peak area of compound in buffer x injection volume of octanol phase]."}, "p38α": {"target": "p38α (Homo sapiens, UniProt Q16539)", "sequence (Q16539 whole entry)": "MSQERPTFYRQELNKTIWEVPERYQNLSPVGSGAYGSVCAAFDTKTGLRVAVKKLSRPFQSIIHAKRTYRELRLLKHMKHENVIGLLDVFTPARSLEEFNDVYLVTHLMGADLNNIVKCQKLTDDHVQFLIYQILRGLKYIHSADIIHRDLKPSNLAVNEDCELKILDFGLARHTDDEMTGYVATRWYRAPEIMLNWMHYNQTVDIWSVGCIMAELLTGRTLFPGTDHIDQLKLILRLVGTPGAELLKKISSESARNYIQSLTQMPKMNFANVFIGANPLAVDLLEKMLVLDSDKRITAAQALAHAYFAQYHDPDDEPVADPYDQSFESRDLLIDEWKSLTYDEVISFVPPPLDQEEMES", "assay": "SelectScreen kinase selectivity profiling, p38α", "assay_type": "biochemical", "description": "as §1"}, "CYP3A4": {"target": "CYP3A4 (Homo sapiens, UniProt P08684)", "sequence (P08684 whole entry)": "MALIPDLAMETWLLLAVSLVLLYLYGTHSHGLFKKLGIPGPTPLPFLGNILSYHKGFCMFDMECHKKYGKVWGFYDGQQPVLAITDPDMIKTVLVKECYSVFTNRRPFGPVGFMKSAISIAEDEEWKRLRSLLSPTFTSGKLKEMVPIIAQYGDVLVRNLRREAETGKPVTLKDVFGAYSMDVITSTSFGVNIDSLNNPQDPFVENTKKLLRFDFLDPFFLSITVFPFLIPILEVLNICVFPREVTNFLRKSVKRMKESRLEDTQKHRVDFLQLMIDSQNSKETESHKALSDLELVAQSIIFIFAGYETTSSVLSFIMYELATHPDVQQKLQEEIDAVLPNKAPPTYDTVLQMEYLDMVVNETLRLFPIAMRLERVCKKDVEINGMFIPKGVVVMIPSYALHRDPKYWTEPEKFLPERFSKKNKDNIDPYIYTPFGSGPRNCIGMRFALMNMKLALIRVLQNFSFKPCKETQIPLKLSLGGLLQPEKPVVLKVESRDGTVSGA", "assay": "CYP3A4 inhibition", "assay_type": "in vitro ADME", "conditions": "read-out: CYP IC50, 3A4"}, "[1]": {"assay": "In vitro microsomal stability, mouse", "assay_type": "in vitro ADME", "conditions": "pH 7.4; mouse liver microsomes; read-out: mouse LM CLint", "description": "Compounds (final concentration = 1 µM; final DMSO concentration = 0.1%) were incubated in 0.1 M phosphate buffer at pH 7.4 with liver microsomes (human, mouse, rat or dog; 0.5 mg of protein/mL) at 37 °C. Reactions were started by addition of NADPH in 0.1 M phosphate buffer pH 7.4 (final concentration 1 mM). Reactions were quenched by addition of ice-cold methanol and frozen. The supernatants were analysed by LC/MS/MS on a Waters Acquity I-Class coupled to a Waters Xevo TQD mass spectrometer. A Waters BEH C18 2.1 × 50 mm 1.7 µm column was used and mobile phases consisted of water and methanol containing 0.1% formic acid as modifier. Analysis was by multiple reaction monitoring and conditions were optimised for each test compound."}},
  "note": "Where two headings read alike, the source gives them in different places.",
  "data": [
    {"smiles": "CCN1C(=O)COc2nc(-c3ccc([C@]4(N)C[C@@H](O)C4)cc3)c(-c3ccccc3)cc21", "note": "[ALM301, 6-(4-((1S,3S)-1-amino-3-hydroxycyclobutyl)phenyl)-1-ethyl-7-phenyl-1H-pyrido[2,3-b][1,4]oxazin-2(3H)-one]", "values": [
      {"measurement": "IC50", "setting": "MCF-7 cells", "result": 2250, "unit": "nM"},
      {"measurement": "inhibition of truncated AKT2 lacking PH domain", "setting": "∆AKT2", "result": "not inhibited"},
      {"measurement": "tolerability / body weight", "setting": "A549 xenografts; 100 mg/kg dosing group, recovered after every other day dosing", "result": "Moderate bodyweight loss"},
      {"measurement": "tolerability / body weight", "setting": "A549 xenografts; 10 and 30 mg/kg dose groups", "result": "no body weight loss or adverse effects observed"},
      {"measurement": "tumour growth inhibition (TGI)", "setting": "A549 xenografts; p.o. 10 mg/kg q.d. × 28", "result": 23, "unit": "%"},
      {"measurement": "tumour growth inhibition (TGI)", "setting": "A549 xenografts; p.o. 30 mg/kg q.d. × 28", "result": 31, "unit": "%"},
      {"measurement": "tumour growth inhibition (TGI)", "setting": "A549 xenografts; p.o. 100 mg/kg q.d × 3 then q.o.d. × 25", "result": 41, "unit": "%"},
      {"measurement": "IC50", "setting": "CYP 2C19", "result": "> 25000", "unit": "nM"},
      {"measurement": "IC50", "setting": "AKT2; full length AKT2, read-out: IC50 full length AKT2", "result": 95, "unit": "nM"},
      {"measurement": "IC50", "setting": "AKT2; read-out: AKT IC50, AKT2", "result": 90, "unit": "nM"},
      {"measurement": "IC50", "setting": "PDK1; 10-point titration curve", "result": "> 10000", "unit": "nM"},
      {"measurement": "inhibition at 10 µM", "setting": "PDK1; read-out: % inhibition @ 10 µM, PDK1, 10 µM fixed concentration", "result": 77, "unit": "%"},
      {"measurement": "logD at 4 h", "setting": "LogD7.4 assay", "result": 1.2},
      {"measurement": "IC50", "setting": "p38α; 10-point titration curve", "result": "> 10000", "unit": "nM"},
      {"measurement": "inhibition at 10 µM", "setting": "p38α; read-out: % inhibition @ 10 µM, p38α, 10 µM fixed concentration", "result": 84, "unit": "%"},
      {"measurement": "IC50", "setting": "CYP3A4", "result": "> 25000", "unit": "nM"},
      {"measurement": "microsomal CLint at 1 µM", "setting": "[1]", "result": 6, "unit": "µL/min/mg"}
    ]}
  ]
}
